Where “and” joins values, the source holds several entries; their conditions need not be identical. Equal values may be shown once.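 Protocol summary: plate cells (96-well), add compound at 5 concentrations, incubate 48 h, interpolate endpoints linearly. GI50 is the concentration that inhibits growth by half. At the TGI there is no net growth.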 Where a SMILES comes first, the peptide text is derived from it. The star is where a group is joined. Palmitoyl = CCCCCCCCCCCCCCCC(=O)* Bounds are passed on as bounds.

Assay in all cases: growth of human tumour cells (NCI), 48 h
The test system of experiment [1] is NCI-H460 lung.
Experiment [2] concerns NCI/ADR-RES ovarian.
The subject of experiment [3] is HL-60(TB) leukemia.
For experiment [4], the system named is DU-145 prostate.
Experiment [5] concerns HCC-2998 colon.
The test system of experiment [6] is SK-MEL-2 melanoma.
In experiment [7] the test system is T-47D breast.
Experiment [8] has as its system SR leukemia.
In experiment [9] the test system is NCI-H226 lung.
For experiment [10], the system named is EKVX NSCLC.

As to `CCOc1cc(C=O)ccc1O`, the TGI in [1], in experiment [2], in [3], in experiment [4], in experiment [5] and in [6] was more than 100 µM in each case. Further, the TGI in experiment [7], in [8], in experiment [9] and in experiment [10] was more than 100 µM throughout.

For the molecule `CSC1(SC)CCCCCCCCCCC1`, the TGI in [1] was more than 100 µM; in [2], more than 100 µM; in experiment [3], more than 100 µM; in [4], more than 100 µM; in experiment [5] it was 40.5 µM; in experiment [6], more than 100 µM. The TGI is 73.3 µM in [7], more than 100 µM in experiment [8], more than 100 µM in experiment [9] and more than 100 µM in [10].

Turning to `CCOP(=O)(OCC)C(F)(F)CC1CCCCC1`, the TGI in experiment [1], in experiment [2], in experiment [3], in experiment [4], in experiment [5] and in [6] was more than 10 µM in each case. Further, the TGI in experiment [7], in experiment [8], in experiment [9] and in experiment [10] was more than 10 µM in each case.

With `N#Cc1nnc2c3c(-c4ccc(Cl)cc4)c(C#N)c(=O)[nH]c3nn2c1N`, the TGI in experiment [1] was 52.6 µM; in [2], 54.9 µM; in [3] it was more than 100 µM; in [4] it was 16.8 µM; in experiment [5] it was 12.7 µM; in [6], 26.9 µM. For the same molecule, the TGI in experiment [7] worked out at 3.97 µM; in experiment [8], 16.7 µM; in experiment [9], 32.6 µM; in experiment [10] it was 30.9 µM.

For `COc1ccc(C[C@H]2COC(=O)[C@@H]2Cc2cc(OC)c(OC)c(OC)c2)cc1OC`, the TGI in [1], in experiment [2], in experiment [3], in experiment [4], in experiment [5] and in [6] was more than 100 µM throughout. Further, the TGI in experiment [7] is more than 65.2 µM; in experiment [8], more than 100 µM; in experiment [9], more than 100 µM; in [10], more than 100 µM.

Regarding `CN1C/C(=C\c2ccccc2[N+](=O)[O-])C(=O)/C(=C/c2ccccc2[N+](=O)[O-])C1`, the TGI in [1] was 4.56 µM and 8.89 µM; in [2], > 28.1 µM and 29.4 µM; in [3] it was 0.632 µM and 0.41 µM; in experiment [4], 6.66 µM and 3.62 µM; in [5] it was 5.52 µM and 3.01 µM; in experiment [6], 8.87 µM and 4.36 µM. Besides, the TGI in experiment [7] was 4.47 µM and 2.08 µM; in [8], 13.2 µM and 7.93 µM; in [9], 16.3 µM; in experiment [10], 13.1 µM and 11 µM. The GI50 in experiment [3] is 0.239 µM; in [5], 2.26 µM; in [7], 1.01 µM and 0.354 µM; in experiment [10], 2.94 µM and 0.554 µM.

For `Cn1c(=O)c2[nH]c(N/N=C3/SCC(=O)N3Cc3ccccc3)nc2n(C)c1=O`, the TGI in experiment [1], in [2], in experiment [3], in [4], in experiment [5] and in experiment [6] was more than 100 µM each time. The TGI was more than 100 µM in [7], 82.3 µM in experiment [8], more than 100 µM in experiment [9] and more than 100 µM in experiment [10].

Consider `CN1C(=O)[C@@]2(C=CC3(CC2)OCCO3)c2ccccc21`, for which the TGI in experiment [1], in experiment [2], in [3], in experiment [4], in experiment [5] and in experiment [6] was more than 50 µM throughout. Besides, the TGI in experiment [7], in [8], in experiment [9] and in experiment [10] was more than 50 µM each time.

Turning to `CC(C)[Si]1(C(C)C)OCC2OC(n3cnc4c(N)ncnc43)C(N)C2O[Si](C(C)C)(C(C)C)O1` (centres undefined), the TGI in [1] was 27.5 µM; in [2], 20.7 µM; in experiment [3], more than 28.2 µM; in experiment [4], 31.4 µM; in experiment [5] it was 14.5 µM; in experiment [6] it was 24.6 µM. Besides, the TGI in [7] is 30.5 µM; in experiment [8] it was more than 27.1 µM; in [9], 25.8 µM; in [10] it was more than 66.9 µM.

As for `CCCCCCCCCCCCCCCC(=O)NC(CCCCN)C(=O)NCC(=O)NC(Cc1ccccc1)C(=O)N1CCCC1C(=O)NC(CO)C(=O)NC(Cc1ccc(O)cc1)C(=O)NC(CCCCN)C(=O)NC(CC(C)C)C(=O)NC(CCCN=C(N)N)C(=O)N1CCCC1C(=O)NCC(N)=O` (centres undefined) (Palmitoyl-KGFPSYKLRPG-NH2; configuration not given here), the GI50 is 19.2 µM in [1]; 20.7 µM in experiment [2]; 19.1 µM in [3]; 20.2 µM in experiment [4]; 17.1 µM in experiment [5]; 43.5 µM in experiment [6]. The GI50 in experiment [7] was 18 µM; in [8] it was 17.7 µM; in experiment [9], 20.2 µM; in experiment [10], 18.8 µM. The TGI is 37.2 µM in [1]; 42.9 µM in experiment [2]; 39.9 µM in experiment [3]; 49.4 µM in [4]; 35.2 µM in experiment [5]; more than 100 µM in [6]. Also, the TGI in experiment [7] came to 45.2 µM; in experiment [8], 39.4 µM; in [9], 42.5 µM; in experiment [10], 44 µM.

Regarding `COc1ccc([C@@]23CCC(=O)C[C@@H]2N(C)CC3)cc1OC`, the TGI in experiment [1], in experiment [2], in experiment [3], in [4], in experiment [5] and in experiment [6] was more than 100 µM in each case. In addition, the TGI in experiment [7], in experiment [8], in experiment [9] and in experiment [10] was more than 100 µM in each case.

Regarding `COc1ccc(C=O)cc1Oc1ccc(C[C@H]2c3c(cc(OC)c4c3Oc3cc5c(cc3O4)CCN(C)C5=O)CCN2C)cc1`, the TGI was found to be 16 µM in experiment [1]; 16.2 µM in experiment [2]; 17.5 µM in experiment [3]; 25.2 µM in [4]; 15.1 µM in experiment [5]; 22.9 µM in experiment [6]. Further, the TGI is more than 50 µM in experiment [7], 21.7 µM in [8], 16.8 µM in experiment [9] and 22.3 µM in [10].

In the case of `c1csc(-c2ccc(-c3ccc(-c4cccs4)s3)s2)c1`, the TGI in experiment [1], in experiment [2], in [3], in experiment [4], in experiment [5] and in experiment [6] was more than 100 µM each time. Also, the TGI in [7], in experiment [8], in experiment [9] and in [10] was more than 100 µM in each case.

In the case of `CC1=CC(c2ccccc2)n2c(nc3cc4ccccc4cc32)N1` (centres undefined), the TGI in experiment [1], in experiment [2], in experiment [3], in experiment [4], in [5] and in experiment [6] was more than 100 µM throughout. The TGI in experiment [7], in experiment [8], in experiment [9] and in [10] was more than 100 µM each time.

With `CCCCC(=C=C1CCCCC1O)C1CCCN1C(=O)OC(C)(C)C` (centres undefined), the TGI in experiment [1] turned out to be 31 µM; in experiment [2] it was 30.6 µM; in experiment [3] it was 25.5 µM; in experiment [4], 31.4 µM; in experiment [5], 36.6 µM; in experiment [6] it was 30 µM. Also, the TGI in [7] is 29.8 µM; in experiment [8], more than 100 µM; in [9] it was 34.8 µM; in experiment [10] it was 28.4 µM.

Turning to `CC(=O)Oc1ccc2c(c1)c1c(OC(C)=O)c3ccccc3c(OC(C)=O)c1n2Cc1cccc(C)c1`, the TGI in [1] is more than 100 µM; in [2], more than 100 µM; in [3] it was more than 100 µM; in [4], more than 100 µM; in experiment [5], 84.2 µM; in [6] it was 48.4 µM. In addition, the TGI in experiment [7] was more than 100 µM; in experiment [8] it was 83.1 µM; in [9], more than 100 µM; in experiment [10], 57.3 µM.

In the case of `CN(Cc1nc2c(N)nc(N)nc2nc1N)c1ccc(C(=O)NC(CCC(=O)O)C(=O)O)cc1` (centres undefined), the TGI in experiment [1], in experiment [2], in [3], in [4], in experiment [5] and in [6] was more than 100 µM in each case. In addition, the TGI in experiment [7], in experiment [8], in experiment [9] and in [10] was more than 100 µM each time.

Turning to `COc1cc(O)c2c(c1)C(O)C(O)CC1OC1C(=O)/C=C/CC(C)OC2=O` (centres undefined), the TGI in experiment [1] is 25.6 µM; in [2], 30.3 µM; in experiment [3], more than 23.4 µM; in [4] it was more than 72.2 µM; in experiment [5], 16.7 µM; in [6] it was 13.5 µM. The TGI in experiment [7] is 30.4 µM; in experiment [8] it was more than 45.4 µM; in [9] it was 33.9 µM; in [10], 35.8 µM.

Regarding `Cc1cc(S(=O)(=O)NC(=NCC(=O)NN)NN)c(S)cc1Cl`, the TGI in experiment [1], in experiment [2], in experiment [3], in [4], in [5] and in experiment [6] was more than 10 µM each time. For the same molecule, the TGI in experiment [7], in experiment [8], in experiment [9] and in experiment [10] was more than 10 µM throughout.
